Measurements: patent US5183821A, “Method for treating leukemias using N-(2-dimethylaminoethyl)-3-amino-1,8-naphthalimide for treating leukemias and solid tumors” (priority 1991, dated 1993)
“Also recorded” adds a separate entry of the source.

What was measured:
[1] = Blood compatibility testing, canine; details: 50 mg/ml, 1:1
Colon 38 [2] = assay: Experiment 12 (second): Colon 38 s.c., saline with Tween-80, female; type: in vivo, Mouse B6 D2 F1 (BDF1)
Excerpt: (§1) Host: Mouse B6 D2 F1 (BDF1)
(§2) Inoculum Site: Subcutaneous
(§3) Vehicle: Saline with Tween-80
Treatment schedule (relative to tumor inoculation day): days 2 and 9
(§4) Day of evaluation (relative to tumor inoculation day): 20
(§5) Parameter: Median tumor weight (MTW) estimated from tumor diameter
(§6) NCI minimal activity criteria: Percent T/C≤42
(§7) Percent T/C: Ratio of test (T) evaluation to control (C) evaluation expressed as a percentage

B16 Melanocarcinoma = assay: Experiment 19: B16 i.p., acid diluted with saline, female; type: in vivo, Mouse B6 D2 F1
Excerpt: Tumor: B16 Melanocarcinoma
Inoculum Site: Intraperitoneal
Tissue: Homogenate (or brei), tumor
Vehicle: Acid diluted with saline
Treatment schedule: (relative to tumor inoculation day): daily on days 1-9
Day of evaluation (relative to tumor inoculation day): 60
(§8) Parameter: Median survival time (MST) in days
(§9) NCI minimal activity criteria: Percent T/C≥125
as §7

leukemia P388 = assay: NCI studies against leukemia P388 (Appendix 1, MDA and T/C); type: in vivo, murine
Excerpt: On the other hand, murine transplantable leukemias are a good predictor of anti-leukemia activity in human beings (Kenis "Dose schedules and mode of administration of chemotherapeutic agents in man". Recent Results Cancer Res. 21, 54-61 (1969). Only those tests which use the survival times as an activity parameter are valid as predictors of antileukemia activity in human beings (for instance, leukemia p388 y L-1210), whilst "in vitro" tests (HeLa cells and other) are inappropriate (Llombart-Rodriguez, 1983). NCI data generated in the last years confirm the value of above assertions to compounds of general formula [drawing 1] as described in U.S. Pat. No. 4,204,063.
Experimental results from NCI studies against leukemia P388 are shown in an appendix (Appendix 1). In order to simplify the presentation of results we have extracted from these the minor active dose (MDA) against leukemia P388--for each compound. MDA is defined as the minor dose of the drug that reaches the minimal activity criteria of the NCI. For leukemia P388 this criteria on the basis of survival time is a minimal increase in survival of treated animals over a control resulting in a T/C≥120. In the following table the MDA for 14 examples are presented. In cases where none of the tested doses reached the MDA, the MDA is indicated as "NONE". The column "cytotoxic activity" has been extracted from U.S. Pat. No. 4,204,063. Data are presented in order of the highest to lowest cytotoxic activity.

Colon 38 [3] = assay: NCI screen, Colon 38, subcutaneous (summary); type: in vivo, Mouse; details: for Antitumor activity in words: colon 38
Excerpt: The activity of the compound has been evaluated by experiments carried out under the auspices of the Division of Cancer Treatment, National Cancer Institute, employing techniques considered to be reliable indicators of chemotherapeutic utility in the treatment of forms of cancer in human patients. The details of the methodology employed in the reported experiments may be determined with reference to established NCI screening methods.
In the experiments conducted by the NCI, evaluation of activity is made on the basis of appropriate parameters, such as median survival time (MST) or change in average tumor diameter (CATD)in ocular micrometer units (OMU).

L-1210 Lymphoid leukemia = assay: Experiment 4: L-1210 s.c., 10^5 cells, acid diluted with saline, male; type: in vivo, Mouse CD2 F1 (CDF1)
Excerpt: Host: Mouse CD2 F1 (CDF1)
Tumor: L-1210 Lymphoid leukemia
as §2
Vehicle: acid diluted with saline
Treatment schedule (relative to tumor inoculation day): daily on days 1-9
Day of evaluation (relative to tumor inoculation day): 30
as §8, §9, §7

[4] = Five daily dose (X5) mouse range-finding and lethality study; type: in vivo, CD2 F1 mice; details: mouse, in vivo, iv
Protocol: A preclinical toxicology study of benzisoquinolinedione (NSC-308847) was done at Springborn Institute for Bioresearch, Inc. using CD2 F1 mice, Fischer 344 rats and beagle dogs. Animals were injected intravenously on a single dose (X1) or five daily dose (X5) regimen. Bulk drug was titrated with 0.5N HCl to form a salt solution of benzisoquinolinedione at a pH of 5.0-6.5. Sterile 0.9% saline was used for diluting the dosing solutions and was used for the vehicle control animals.
The deaths generally were preceded by rough hair coat, decreased activity, hunched posture and dehydration. […] Males and females were similarily affected on both schedules.
Defined Doses for the Five Daily Dose Mouse Lethality

Colon 38 [5] = assay: Experiment 12 (first): Colon 38 s.c., saline with Tween-80, male; type: in vivo, Mouse B6 D2 F1 (BDF1)
Excerpt: as §1, §2, §3
Treatment schedule (relative to tumor inoculation day) days 2 and 9
as §4, §5, §6, §7

CN(C)CCN1C(=O)c2cccc3cc(N)cc(c23)C1=O [Example 9, 1H-Benz[de]isoquinoline-1,3(2H)-dione, 5-amino-2-[2-(dimethylamino)ethyl]]
blood compatibility ([1]; canine heparinized plasma): compatibility | blood compatibility ([1]; canine serum): compatibility | Median tumor weight (MTW) (Colon 38 [2]; 8.00 mg/kg i.p.): 1100 | Percent T/C (Colon 38 [2]; 8.00 mg/kg i.p.): 88% | Median tumor weight (MTW) (Colon 38 [2]; 16.00 mg/kg i.p.): 1256 | Percent T/C (Colon 38 [2]; 16.00 mg/kg i.p.): 100% | Median tumor weight (MTW) (Colon 38 [2]; 32.00 mg/kg i.p.): 1005 | Percent T/C (Colon 38 [2]; 32.00 mg/kg i.p.): 80% | Median tumor weight (MTW) (Colon 38 [2]; 64.00 mg/kg i.p.): 699 | Percent T/C (Colon 38 [2]; 64.00 mg/kg i.p.): 55% | Median tumor weight (MTW) (Colon 38 [2]; 128.00 mg/kg i.p.): Deaths before evaluation | Median survival time (MST) (B16 Melanocarcinoma; 1.00 mg/kg i.p.): 19.8 days | Percent T/C (B16 Melanocarcinoma; 1.00 mg/kg i.p.): 99% | Median survival time (MST) (B16 Melanocarcinoma; 2.00 mg/kg i.p.): 21.9 days | Percent T/C (B16 Melanocarcinoma; 2.00 mg/kg i.p.): 110% | Median survival time (MST) (B16 Melanocarcinoma; 4.00 mg/kg i.p.): 22.8 days | Percent T/C (B16 Melanocarcinoma; 4.00 mg/kg i.p.): 114% | Median survival time (MST) (B16 Melanocarcinoma; 8.00 mg/kg i.p.): 24.3 days | Percent T/C (B16 Melanocarcinoma; 8.00 mg/kg i.p.): 122% | Median survival time (MST) (B16 Melanocarcinoma; 16.00 mg/kg i.p.): 31.0 days | Percent T/C (B16 Melanocarcinoma; 16.00 mg/kg i.p.): 155% | Median survival time (MST) (B16 Melanocarcinoma; 32.00 mg/kg i.p.): 6.8 days | response vs control in vivo at 2 mg/kg (leukemia P388; Mus musculus, P388, read-out: T/C %, dose 2,00 mg/kg): 137% | response vs control in vivo at 4 mg/kg (leukemia P388; Mus musculus, P388, read-out: T/C %, dose 4,00 mg/kg): 142% | response vs control in vivo at 32 mg/kg (leukemia P388; Mus musculus, P388, read-out: T/C %, dose 32,00 mg/kg): < 100% | response vs control in vivo at 65 mg/kg (leukemia P388; Mus musculus, P388, read-out: T/C %, dose 65,00 mg/kg): < 100% | minimal effective dose (leukemia P388; Mus musculus, P388, minor active dose reaching T/C≥120): 2 mg/kg | STATUS (activity against leukemia P388) (leukemia P388; at the dose of the same line of the appendix table): T/C > 120 active | T/C, growth of s.c. implanted colon 38 tumor (Colon 38 [3]; 64 mg/kg i.p.): 17% | inhibition at 64 mg/kg (Colon 38 [3]; Mus musculus, 64 mg/kg i.p., read-out: inhibition of growth of s.c. implanted colon 38 tumor): 83% | Antitumor activity in words (Colon 38 [3]; listed as BIDA): not active | Antitumor activity in words (Colon 38 [3]; listed as the compound): at least a reproducible minimal activity; also recorded: active | Table II evaluation (Colon 38 [3]; median tumor weight, 25 tests, full wrapped cell: Reproducible minimal activity): Reproducible minimal | Median survival time (MST) (L-1210 Lymphoid leukemia; 0.00 mg/kg [sic] i.p.): 8.9 days | Percent T/C (L-1210 Lymphoid leukemia; 0.00 mg/kg [sic] i.p.): 101% | Median survival time (MST) (L-1210 Lymphoid leukemia; 5.00 mg/kg i.p.): 10.4 days | Percent T/C (L-1210 Lymphoid leukemia; 5.00 mg/kg i.p.): 118% | Median survival time (MST) (L-1210 Lymphoid leukemia; 7.00 mg/kg i.p.): 10.7 days | Percent T/C (L-1210 Lymphoid leukemia; 7.00 mg/kg i.p.): 121% | Median survival time (MST) (L-1210 Lymphoid leukemia; 10.00 mg/kg i.p.): 12.0 days | Percent T/C (L-1210 Lymphoid leukemia; 10.00 mg/kg i.p.): 136% | Median survival time (MST) (L-1210 Lymphoid leukemia; 16.00 mg/kg i.p.): 15.3 days | Percent T/C (L-1210 Lymphoid leukemia; 16.00 mg/kg i.p.): 173% | Median survival time (MST) (L-1210 Lymphoid leukemia; 24.00 mg/kg i.p.): 11.0 days | Percent T/C (L-1210 Lymphoid leukemia; 24.00 mg/kg i.p.): 125% | LD50 ([4]; combined sexes): 28.4 mg/kg | LD50 ([4]; male): 28.8 mg/kg | Median tumor weight (MTW) (Colon 38 [5]; 2.00 mg/kg i.p.): 685 | Percent T/C (Colon 38 [5]; 2.00 mg/kg i.p.): 72% | Median tumor weight (MTW) (Colon 38 [5]; 4.00 mg/kg i.p.): 775 | Percent T/C (Colon 38 [5]; 4.00 mg/kg i.p.): 81% | Median tumor weight (MTW) (Colon 38 [5]; 8.00 mg/kg i.p.): 861 | Percent T/C (Colon 38 [5]; 8.00 mg/kg i.p.): 90% | Median tumor weight (MTW) (Colon 38 [5]; 16.00 mg/kg i.p.): 733 | Percent T/C (Colon 38 [5]; 16.00 mg/kg i.p.): 77% | Median tumor weight (MTW) (Colon 38 [5]; 32.00 mg/kg i.p.): 270 | Percent T/C (Colon 38 [5]; 32.00 mg/kg i.p.): 28% | Median tumor weight (MTW) (Colon 38 [5]; 64.00 mg/kg i.p.): 252 | Percent T/C (Colon 38 [5]; 64.00 mg/kg i.p.): 26%
